In patent US11306051B2, “Use of vanillin derivatives as a preservative, preservation method, compounds, and composition” (L'OREAL, priority 2009, dated 2022):

How the values were obtained:
Type in all cases: cell-based
[1] = system: Candida albicans (Ca) ATCC 10231; assay: Challenge Test (artificial contamination) of cosmetic formula, C. albicans; conditions: 2% compound in cosmetic formula; inoculation about 10^6 cfu/gram; 7 days contact at 22° C.±2° C. in darkness; <200 cfu = sensitivity threshold
Protocol: (§1) The antimicrobial efficacy of a compound of formula (I) was evaluated via the Challenge Test or artificial contamination method. The method of the challenge test consists of an artificial contamination of the sample with collection microbial strains (bacteria, yeasts and moulds) and evaluation of the number of revivable microorganisms seven days after the inoculation. […] [table] […] After 7 days of contact time between the microorganisms and the product at 22° C.±2° C. and in darkness, decimal dilutions are performed and the number of revivable microorganisms remaining in the product is counted.

[2] = system: Aspergillus niger (An) ATCC 6275; assay: Challenge Test (artificial contamination) of cosmetic formula, A. niger; conditions: 2% compound in cosmetic formula; inoculation about 10^6 cfu/gram; 7 days contact at 22° C.±2° C. in darkness
Protocol: The antimicrobial efficacy of a compound of formula (I) was evaluated via the Challenge Test or artificial contamination method. The method of the challenge test consists of an artificial contamination of the sample with collection microbial strains (bacteria, yeasts and moulds) and evaluation of the number of revivable microorganisms seven days after the inoculation. […] [table] The gram-negative bacteria (Escherichia coli and Pseudomonas aeruginosa), gram-positive bacteria (Enterococcus faecalis), yeast (Candida albicans) and mould (Aspergillus niger) are seeded in the subculturing medium, respectively, the day before the inoculation for the bacteria and the yeast, and five days before the inoculation for the mould. for the mould, the spores are collected by washing the agar with 6 to 7 ml of harvesting solution and the suspension is recovered in a sterile tube or flask. After homogenizing the microbial suspension, 0.2 ml of inoculum is introduced into each pill bottle (the suspensions are used pure: between 1×10^8 and 3×10^8 cfu per ml) and the microbial suspension in the 20 g of product (=cosmetic formula) is homogenized thoroughly using a spatula. […] After 7 days of contact time between the microorganisms and the product at 22° C.±2° C. and in darkness, decimal dilutions are performed and the number of revivable microorganisms remaining in the product is counted.

[3] = system: Enterococcus faecalis (Ef) ATCC 33186; assay: Challenge Test (artificial contamination) of cosmetic formula, E. faecalis; conditions: 2% compound in cosmetic formula; inoculation about 10^6 cfu/gram; 7 days contact at 22° C.±2° C. in darkness; <200 cfu = sensitivity threshold
Protocol: as §1

[4] = system: Pseudomonas aeruginosa (Pa) ATCC 19429; assay: Challenge Test (artificial contamination) of cosmetic formula, P. aeruginosa; conditions: 2% compound in cosmetic formula; inoculation about 10^6 cfu/gram; 7 days contact at 22° C.±2° C. in darkness; <200 cfu = sensitivity threshold
Protocol: as §1

[5] = system: Escherichia coli (Ec) ATCC 8739; assay: Challenge Test (artificial contamination) of cosmetic formula, E. coli; conditions: 2% compound in cosmetic formula; inoculation about 10^6 cfu/gram; 7 days contact at 22° C.±2° C. in darkness; <200 cfu = sensitivity threshold
Protocol: as §1

`CCOc1cc(CCC(C)=O)ccc1O` [Compound] was tested, and the “No. of cfu/gram of product at T7 days, C. albicans” value [1] was <200 cfu/gram of product, the “No. of cfu/gram of product at T7 days, A. niger” value [2] was 3.4 × 10^5 cfu/gram of product and the “No. of cfu/gram of product at T7 days, E. faecalis” value [3] was <200 cfu/gram of product. For the same molecule, the “No. of cfu/gram of product at T7 days, P. aeruginosa” value [4] was <200 cfu/gram of product and the “No. of cfu/gram of product at T7 days, E. coli” value [5] was <200 cfu/gram of product.
